52 compounds from ChEMBL document CHEMBL1201862, “PubChem BioAssay data set” (2004) can be followed below.

For orientation: AC50 means the midpoint of the concentration-response curve, whichever way the signal moves. In general, EC50 refers to the midpoint of the concentration-response curve.

Molecules are shown by their SMILES. Active and inactive are the calls of the source. For most assays here, no stated cut-off is given here; in the data, actives have a measured EC50 and inactives only a lower limit. Some results are limits rather than exact numbers.

The target of one assay is Cytochrome P450 3A4 (Homo sapiens, UniProt P08684).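 Further: CYP3A4 tested as one member of a cytochrome P450 panel screen.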
For a further assay, the system named is Streptococcus. The experiment in a line: Group A Streptococcus viability loss, dose response, counter-screen for streptokinase expression inhibitor project, luminescence, BacTiterGlo (AID 1915).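 Further: potency for reduction of bacterial viability or growth.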 The format is functional, organism-based. For orientation: A counterscreen serves to expose hits that act by an unwanted route or on another target.
Another assay concerns the target T1, Streptokinase A (Streptococcus pyogenes serotype M1, UniProt P10520).
T1 sequence (P10520 whole entry): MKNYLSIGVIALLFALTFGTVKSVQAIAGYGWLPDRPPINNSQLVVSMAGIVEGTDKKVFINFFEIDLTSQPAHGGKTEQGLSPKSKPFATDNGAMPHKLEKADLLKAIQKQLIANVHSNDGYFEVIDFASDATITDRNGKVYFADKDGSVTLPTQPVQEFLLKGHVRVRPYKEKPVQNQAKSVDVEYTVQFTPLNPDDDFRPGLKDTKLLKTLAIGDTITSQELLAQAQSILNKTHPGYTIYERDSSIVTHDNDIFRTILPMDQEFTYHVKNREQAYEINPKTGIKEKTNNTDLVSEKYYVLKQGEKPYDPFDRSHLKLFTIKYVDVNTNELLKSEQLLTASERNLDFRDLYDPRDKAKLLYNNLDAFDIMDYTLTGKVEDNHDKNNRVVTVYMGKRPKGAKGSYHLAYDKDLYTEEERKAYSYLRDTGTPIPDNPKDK
The experiment in a line: S. pyogenes streptokinase expression inhibitors, potency, dose response, plasminogen activation absorbance, OD405 (AID 1914).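 Further: secreted streptokinase activity via plasminogen activation per viability signal from cell pellet.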 The format is functional, Streptococcus pyogenes M1 GAS.

Assay [1] has as its system Streptococcus sp. 'group A'. As to the kind of experiment: growth inhibition of control SK(-) GAS strain, dose response, counter-screen for streptokinase expression inhibitor project, luminescence, kanamycin, BacTiterGlo, confirmation (AID 1900). The format is functional, organism-based.
The target in another assay is Cytochrome P450 2C9 (Homo sapiens, UniProt P11712).
Assay [2] can be described thus: Luminescence Cell-Based Dose Response HTS to Identify Activators of Luciferase Translation or Activity in H4 […] Cells. [Related pubchem assays: 1829 (Project Summary), 1814 (Primary HTS)]. Type of assay: functional.
For a further assay, the system named is H4. As to the kind of experiment: Luminescence Cell-Based Dose Response HTS to Identify Activators of 5'UTR Stem-Loop Driven Prion Protein mRNA Translation in H4 Neuroglioblastoma Cells. [Related pubchem assays: 1829 (Project Summary), 1814 (Primary HTS)]. The format is functional. To be noted: Homo sapiens.
Assay [3] can be described thus: inhibitors of intracellular T. cruzi replication, confirmation, NIH3T3 host cells, beta-gal luminescence (AID 2044).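 Further: intracellular parasites grown in NIH/3T3 mouse fibroblasts as host cells; luminescent beta-galactosidase reporter signal from transgenic T. cruzi replicating inside host cells; inhibitors lower the luminescence signal.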 Type of assay: functional, cell-based.
Assay [4] in a line: cytotoxicity toward NIH3T3 fibroblasts, dose response, counter-screen, cell-based, ATP luminescence, mouse fibroblasts (AID 2010).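 Further: cells exposed to compound for about 90 hours before reading.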 Type of assay: functional.

Sequence of Cytochrome P450 2C9 (P11712 whole entry): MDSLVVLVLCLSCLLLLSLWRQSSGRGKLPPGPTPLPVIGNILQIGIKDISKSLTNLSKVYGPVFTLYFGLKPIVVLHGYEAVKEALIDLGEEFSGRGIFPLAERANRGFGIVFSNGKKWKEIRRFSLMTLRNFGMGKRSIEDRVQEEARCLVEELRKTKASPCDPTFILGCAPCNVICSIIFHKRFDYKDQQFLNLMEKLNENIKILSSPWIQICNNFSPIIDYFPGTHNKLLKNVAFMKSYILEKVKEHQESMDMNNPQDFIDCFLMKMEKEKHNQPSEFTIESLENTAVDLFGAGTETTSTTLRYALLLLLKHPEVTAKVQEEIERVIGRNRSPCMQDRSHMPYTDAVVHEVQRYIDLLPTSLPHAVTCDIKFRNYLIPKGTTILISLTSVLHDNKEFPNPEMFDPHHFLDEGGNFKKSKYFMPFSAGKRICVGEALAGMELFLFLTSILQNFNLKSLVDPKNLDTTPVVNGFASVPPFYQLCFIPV
Sequence of Cytochrome P450 3A4 (P08684 whole entry): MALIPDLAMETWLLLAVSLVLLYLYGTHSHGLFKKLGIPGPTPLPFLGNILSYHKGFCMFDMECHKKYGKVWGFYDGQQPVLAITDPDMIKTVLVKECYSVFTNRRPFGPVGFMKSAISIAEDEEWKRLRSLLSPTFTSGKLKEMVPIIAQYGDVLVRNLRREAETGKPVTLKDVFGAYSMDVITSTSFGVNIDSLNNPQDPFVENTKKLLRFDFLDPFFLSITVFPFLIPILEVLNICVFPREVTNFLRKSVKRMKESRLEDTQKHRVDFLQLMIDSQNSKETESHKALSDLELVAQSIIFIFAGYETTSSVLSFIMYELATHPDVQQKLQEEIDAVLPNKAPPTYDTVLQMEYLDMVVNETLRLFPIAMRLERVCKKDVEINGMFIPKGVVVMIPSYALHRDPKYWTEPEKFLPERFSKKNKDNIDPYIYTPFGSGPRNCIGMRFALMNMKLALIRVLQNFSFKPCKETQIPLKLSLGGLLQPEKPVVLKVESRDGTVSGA

For the compound `CCCCOc1cc(C[C@@H]2CNC(=O)N2)ccc1OC`, on Cytochrome P450 3A4, the AC50 is 15.8 µM (inconclusive). `O=C(Nc1ccccc1Sc1ccccc1)c1ccccc1F`: the figures for the half-maximal effective concentration (EC50) in the assay on Streptococcus and on Streptokinase A were > 150 µM (not active) and > 50 µM (not active), respectively. `O=C(O)CSc1nnc(Cn2c(=O)sc3ccccc32)n1-c1cccc(Cl)c1`: the EC50 (with Streptococcus; on Streptokinase A; in assay [1]) was > 150 µM (not active) throughout. In the case of `Clc1ccccc1-c1cncnc1NCCc1cnc[nH]1`, at Cytochrome P450 2C9, the AC50 was 1 µM (inconclusive).

With `Cc1ccc(NC(=O)OCc2cn(-c3ccc(Cl)cc3)nn2)cc1`, at Cytochrome P450 3A4, the AC50 was 7.94 µM (inconclusive). For `O=C(CSc1nnc(-c2cccnc2)o1)Nc1ccccn1`, the EC50 is 14.5 µM (active) in [2] and > 120 µM (not active) with H4. Take `COc1ccccc1C(=O)Nc1nnc(S(=O)(=O)N2CCN(c3ccc(F)cc3)CC2)s1`: the EC50 in the assay on Streptococcus was 119 µM (inconclusive); at Streptokinase A, > 50 µM (not active); in assay [1], 20.1 µM (active). For `COc1ccc(CNC(=O)CN(Cc2ccccc2)S(=O)(=O)c2ccc(Cl)cc2)cc1`, the EC50 in assay [3] is 3.15 µM (active); in assay [4], > 60 µM (not active). In the case of `O=C(C1CCCCC1)N(CCN1CCCC1)c1nc2ccccc2s1`, the EC50 in assay [3] was 0.78 µM (active); in assay [4], > 60 µM (not active). Turning to `Fc1ccc(/C=C\c2[nH]ccc3c4ccccc4nc2-3)cc1`, the concentration giving a half-maximal response (EC50) was 17.7 µM (active) in assay [2] and > 120 µM (not active) in the assay with H4. Consider `CC(C)CN1CCC2(CC1)CCN(C(=O)c1ccncc1)CC2`, for which the half-maximal activity concentration (AC50) on Cytochrome P450 3A4 was 15.8 µM (inconclusive). As to `C[C@@]12CC[C@H]3[C@@H](CC[C@@H]4C[C@H]5S[C@H]5C[C@]43C)[C@H]1CC[C@H]2O`, at Cytochrome P450 3A4, the AC50 is 6.31 µM (inconclusive). As for `Cc1noc(C)c1CSCC(=O)Nc1nc2ccc(Oc3ccccc3)cc2s1`, the half-maximal effective concentration (EC50) in the assay on Streptococcus was > 150 µM (not active); on Streptokinase A, 16.9 µM (active); in assay [1], 4.32 µM (active). Regarding `O=C(Nc1cc(C(F)(F)F)ccc1-n1cncn1)c1ccc(Br)cc1`, the AC50 on Cytochrome P450 2C9 was 3.16 µM (inconclusive). Consider `CN(C)c1cc(-c2cccc(NS(C)(=O)=O)c2)ncn1`, for which the half-maximal activity concentration (AC50) on Cytochrome P450 3A4 was 25.1 µM (inconclusive). On the same count and under the same terms, the value for `COc1ccc2c3c1O[C@@H]1C(=O)CC[C@@]4(O)[C@@H](C2)N(CC2CC2)CC[C@]314` was 25.1 µM (inconclusive).

Turning to `O=c1c(-c2cccs2)nc2cnc(Oc3ccccc3)nc2n1Cc1cccs1`, the AC50 at Cytochrome P450 2C9 is 1.58 µM (inconclusive); at Cytochrome P450 3A4 it was 15.8 µM (inconclusive). Take `O=C(CC(=O)c1ccccc1)Nc1cccnc1Cl`: the EC50 in assay [2] is 61.9 µM (active); in the assay with H4, 8.38 µM (active). `O=C(CSc1nc2ccc([N+](=O)[O-])cc2s1)c1ccc2ccccc2c1`: the half-maximal activity concentration (AC50) on Cytochrome P450 3A4 is 3.98 µM (inconclusive).

In the case of `CC(C)CN1CCCC2(CCN(C(=O)c3cccn3C)CC2)C1`, the AC50 on Cytochrome P450 3A4 was 12.6 µM (inconclusive). For the compound `CN1CCC(N(C)C(=O)c2sc3cc(F)ccc3c2Cl)CC1`, the EC50 in assay [3] was 0.197 µM (active); in [4], > 60 µM (not active). `COc1cccc(CNC(=O)CCC2CCCN(Cc3cc4ccccc4o3)C2)c1` (stereo unspecified): the figures for the half-maximal effective concentration (EC50) in assay [3] and in assay [4] were 0.103 µM (active) and > 60 µM (not active), respectively. Consider `Clc1ccc(-c2cc3ccccc3nc2N2CCCC2)cc1`, for which the EC50 with Streptococcus is > 150 µM (not active); at Streptokinase A, 17.6 µM (active); in [1], 8.89 µM (active). As to `Cc1nc2ccccc2c(=O)n1NC(=O)/C=C/c1ccccc1Cl`, the results for the concentration giving a half-maximal response (EC50) (in [2]; in the assay on H4) were 12.2 µM (active) and 84.4 µM (active), respectively. Take `Cc1ccc(N2C(=O)C3N=NN(CC(=O)N4N=C(c5cccc6ccccc56)CC4c4ccccc4)C3C2=O)cc1` (stereo unspecified): the figures for the EC50 (in the assay on Streptococcus; at Streptokinase A; in assay [1]) were > 150 µM (not active), 35.7 µM (active) and 31.4 µM (active), respectively. Turning to `COc1ccc(C2CC(c3cccs3)=NN2C(=O)CSc2nc(O)c3cnn(-c4ccccc4)c3n2)cc1` (stereo unspecified), the concentration for a half-maximal effect (EC50) was 5.77 µM (active) with Streptococcus and 3 µM (active) in [1]. With `Cc1nc2cnc(N3CCN(C)CC3)nc2n(Cc2ccc(F)cc2)c1=O`, the AC50 at Cytochrome P450 3A4 was 20 µM (inconclusive). Take `Cc1nn(C)c(Cl)c1CN1CCCC(C(=O)Nc2ccc(-c3cscn3)cc2)C1` (stereo unspecified): the half-maximal effective concentration (EC50) (in the assay on Streptococcus; on Streptokinase A; in [1]) was > 150 µM (not active) in each case. On to `CCCn1c(=O)c(C(=O)Nc2ncccc2C)c(O)c2ccccc21`, for which the concentration giving a half-maximal response (EC50) in the assay with Streptococcus is 16.8 µM (active); on Streptokinase A it was > 150 µM (not active); in assay [1] it was 9.49 µM (active). Consider `C[C@H]1CC[C@H]2C(=O)N3[C@H](c4ccc(Br)cc4)[C@@H](C)CC[C@H]3C(=O)N2[C@@H]1c1ccc(Br)cc1`, for which the concentration at half-maximal activity (AC50) on Cytochrome P450 3A4 is 3.98 µM (inconclusive).

`CC(NC(=O)CN1CCCC1)C12CC3CC(CC(C3)C1)C2` (stereo unspecified): at Cytochrome P450 3A4, the half-maximal activity concentration (AC50) is 14.1 µM (inconclusive).

For the compound `COc1ccc(C(=O)Nc2sc(C)c(-c3ccccc3)c2C#N)cc1OC`, the results for the concentration for a half-maximal effect (EC50) (with Streptococcus; on Streptokinase A; in assay [1]) were 45.5 µM (active), > 150 µM (not active) and 9.09 µM (active), respectively.

For `CCNC(C)(C)[C@@H](SS)c1ccc(Br)cc1`, the results for the AC50 at Cytochrome P450 2C9 and on Cytochrome P450 3A4 were 6.31 µM (inconclusive) and 5.01 µM (inconclusive), respectively.

As to `CC(Oc1ccc(Cl)cc1Cl)C(=O)Nc1ccc(S(=O)(=O)Nc2cnc3ccccc3n2)cc1` (stereo unspecified), the 50% effective concentration (EC50) in the assay on Streptococcus was 7.38 µM (active); at Streptokinase A it was 3.69 µM (active); in assay [1], 2.45 µM (active).

For the compound `COc1ccccc1CNc1ncncc1-c1ccoc1`, the results for the concentration at half-maximal activity (AC50) at Cytochrome P450 2C9 and on Cytochrome P450 3A4 were 1.58 µM (inconclusive) and 0.794 µM (inconclusive), respectively. Turning to `COCCOC(=O)C1=C(C)NC(=O)N(C(C)=O)C1c1ccc(Cl)cc1` (stereo unspecified), the AC50 on Cytochrome P450 3A4 was 17.8 µM (inconclusive). On to `COc1ccccc1CNc1ncncc1-c1ccccc1OC`, for which the AC50 on Cytochrome P450 2C9 is 1.58 µM (inconclusive). Regarding `O=C(COC(=O)c1ccccc1)Nc1ccccc1Sc1ccccc1`, the 50% effective concentration (EC50) in the assay with Streptococcus is > 150 µM (not active); at Streptokinase A it was 28.8 µM (active); in assay [1], > 150 µM (not active). As for `O=C(Cn1cnc2cc([N+](=O)[O-])ccc2c1=O)Nc1ccc(Br)cc1`, the EC50 in assay [3] was 0.85 µM (active); in assay [4], > 30 µM (not active). Regarding `COc1cccc(NCc2cc(=O)oc3cc(C)c(O)cc23)c1`, the EC50 with Streptococcus was 2.79 µM (active); in assay [1] it was 1.83 µM (active). With `COc1ccccc1CNC(=O)c1ccc(-c2ccccc2Cl)o1`, the half-maximal effective concentration (EC50) in the assay with Streptococcus is 17.5 µM (active); on Streptokinase A it was > 150 µM (not active); in [1] it was 15.3 µM (active). Consider `O=C(c1ccco1)N(CCC(c1ccccc1)c1ccco1)Cc1ccco1` (stereo unspecified), for which the AC50 on Cytochrome P450 3A4 was 11.2 µM (inconclusive).

On to `CCCC(N=C(S)NCC1CCCO1)C12CC3CC(CC(C3)C1)C2` (stereo unspecified), for which the EC50 in the assay on Streptococcus was > 150 µM (not active); in assay [1], 12.3 µM (active). As to `CCCC(NC(=S)NCC1CCCO1)C12CC3CC(CC(C3)C1)C2` (stereo unspecified), on Streptokinase A, the EC50 is 18 µM (active). For `CC(C)c1c(C(=O)N/N=C/c2cccc(OCc3ccccc3)c2)nnn1-c1nonc1N`, the values for the EC50 (with Streptococcus; at Streptokinase A; in assay [1]) were 26.4 µM (active), 9.73 µM (active) and 8.03 µM (active), respectively. Take `Cc1cc2c(cc1C)-c1c(ss/c1=N\c1ccc(S(N)(=O)=O)cc1)C(C)(C)N2`: the results for the EC50 (in the assay with Streptococcus; at Streptokinase A; in assay [1]) were > 150 µM (not active), 26.1 µM (active) and 4.16 µM (active), respectively.

In the case of `C/C(=N\NC(=O)c1[nH]c2c([N+](=O)[O-])cc(C)cc2c1-c1ccccc1)c1cccnc1`, the AC50 on Cytochrome P450 2C9 is 8.91 µM (inconclusive). For the compound `C=C(C)CSc1nncn1/N=C/c1ccc(OC)cc1`, the figures for the EC50 (in [2]; in the assay on H4) were > 120 µM (not active) and 11.9 µM (active), respectively. Regarding `CN(C)c1ccc(-c2noc(C3CCN(S(=O)(=O)c4cccc(C(=O)O)c4)CC3)n2)cc1`, the concentration at half-maximal activity (AC50) on Cytochrome P450 2C9 is 15.8 µM (inconclusive).

Consider `COc1cccc(-c2cncnc2NCc2ccc(OC)cc2OC)c1`, for which the concentration at half-maximal activity (AC50) on Cytochrome P450 2C9 was 1 µM (inconclusive). Consider `C1=C(CN2CCOCC2)COc2c1cccc2OC[C@@H]1CNCCO1`, for which the concentration at half-maximal activity (AC50) on Cytochrome P450 3A4 was 39.8 µM (inconclusive).

Take `C/C(Cn1cnc([N+](=O)[O-])n1)=N\NC(=O)c1ccc(O)cc1O`: the EC50 was 1.52 µM (active) in assay [3] and > 60 µM (not active) in assay [4].
